According to ChEMBL document CHEMBL4184252, “Synthesis of novel multivalent fluorescent inhibitors with high affinity to prostate cancer and their biological evaluation” (Bioorg Med Chem Lett, 2018):

Legend:
[1] = Drug distribution in muscle of BALB/c nude mouse xenografted with human 22Rv1 cells at 10 nmol, iv measured 1 to 24 hrs after post dose by fluorescence imaging method; assay type: ADME, organism-based, Muscle tissue; settings: in vivo
[2] = Drug distribution in liver of BALB/c nude mouse xenografted with human 22Rv1 cells at 10 nmol, iv measured 1 to 24 hrs after post dose co-treated with 1 umol DCIBZL by fluorescence imaging method; assay type: ADME, organism-based; settings: in vivo
[3] = Drug distribution in tumor of BALB/c nude mouse xenografted with human 22Rv1 cells at 10 nmol, iv measured 1 to 24 hrs after post dose by fluorescence imaging method; assay type: ADME, organism-based, Neoplasm; settings: in vivo
[4] = Drug distribution in lung of BALB/c nude mouse xenografted with human 22Rv1 cells at 10 nmol, iv measured 1 to 24 hrs after post dose by fluorescence imaging method; assay type: ADME, organism-based; settings: in vivo
[5] = Drug distribution in spleen of BALB/c nude mouse xenografted with human 22Rv1 cells at 10 nmol, iv measured 1 to 24 hrs after post dose by fluorescence imaging method; assay type: ADME, organism-based; settings: in vivo
[6] = Drug distribution in heart of BALB/c nude mouse xenografted with human 22Rv1 cells at 10 nmol, iv measured 1 to 24 hrs after post dose by fluorescence imaging method; assay type: ADME, organism-based; settings: in vivo
[7] = target: Glutamate carboxypeptidase 2 (Homo sapiens, UniProt Q04609); experiment: Inhibition of PSMA in human LNCaP cell lysates incubated for 2 hrs in presence of N-acetylaspartylglutamate by Amplex red glutamic acid/glutamate oxidase assay
Chain of Glutamate carboxypeptidase 2 (Q04609 whole entry): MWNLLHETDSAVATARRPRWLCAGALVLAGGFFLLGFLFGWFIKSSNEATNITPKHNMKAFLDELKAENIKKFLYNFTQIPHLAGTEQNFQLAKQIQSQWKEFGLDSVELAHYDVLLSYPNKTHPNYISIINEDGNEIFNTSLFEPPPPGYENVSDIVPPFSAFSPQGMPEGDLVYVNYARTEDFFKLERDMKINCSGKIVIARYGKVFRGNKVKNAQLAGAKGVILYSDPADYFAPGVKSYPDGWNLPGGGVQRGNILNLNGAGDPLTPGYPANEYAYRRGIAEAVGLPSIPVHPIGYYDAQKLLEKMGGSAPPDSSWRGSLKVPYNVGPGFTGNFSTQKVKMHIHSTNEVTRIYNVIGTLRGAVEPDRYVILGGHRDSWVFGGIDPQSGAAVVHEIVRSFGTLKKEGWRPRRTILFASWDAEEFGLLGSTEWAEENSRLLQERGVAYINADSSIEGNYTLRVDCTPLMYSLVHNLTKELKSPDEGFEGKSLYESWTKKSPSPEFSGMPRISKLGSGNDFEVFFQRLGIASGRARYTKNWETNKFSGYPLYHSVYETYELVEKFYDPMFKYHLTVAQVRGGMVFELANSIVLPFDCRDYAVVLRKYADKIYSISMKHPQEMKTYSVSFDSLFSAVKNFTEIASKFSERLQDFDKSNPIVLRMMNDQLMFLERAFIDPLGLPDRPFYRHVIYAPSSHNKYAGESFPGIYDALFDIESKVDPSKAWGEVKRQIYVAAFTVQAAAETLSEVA

[8] = Drug distribution in liver of BALB/c nude mouse xenografted with human 22Rv1 cells at 10 nmol, iv measured 1 to 24 hrs after post dose by fluorescence imaging method; assay type: ADME, organism-based; settings: in vivo
[9] = Drug distribution in tumor of BALB/c nude mouse xenografted with human 22Rv1 cells at 10 nmol, iv measured 1 to 24 hrs after post dose co-treated with 1 umol DCIBZL by fluorescence imaging method; assay type: ADME, organism-based, Neoplasm; settings: in vivo

Drug uptake [1]	Drug uptake [2]	Drug uptake [3]	Drug uptake [4]	Drug uptake [5]	Drug uptake [6]	Ki [7] [nM]	Drug uptake [8]	Drug uptake [9]	SMILES
Not Active	Not Active	Active	Not Active	Not Active	Not Active	0.58	Active	Not Active	CCN1/C(=C/C=C/C=C/C2=[N+](CCCCCC(=O)NCCCC(=O)NCCCC[C@H](NC(=O)N[C@@H](CCC(=O)O)C(=O)O)C(=O)O)c3ccc4c(S(=O)(=O)[O-])cc(S(=O)(=O)O)cc4c3C2(C)C)C(C)(C)c2c1ccc1c(S(=O)(=O)O)cc(S(=O)(=O)O)cc21
Not Active		Active	Not Active	Not Active	Not Active	0.38	Active		CCN1/C(=C/C=C/C=C/C2=[N+](CCCCCC(=O)NCCCN(CC(=O)Nc3ccc(C(=O)NCCCC[C@H](NC(=O)N[C@@H](CCC(=O)O)C(=O)O)C(=O)O)cc3)CC(=O)Nc3ccc(C(=O)NCCCC[C@H](NC(=O)N[C@@H](CCC(=O)O)C(=O)O)C(=O)O)cc3)c3ccc4c(S(=O)(=O)[O-])cc(S(=O)(=O)O)cc4c3C2(C)C)C(C)(C)c2c1ccc1c(S(=O)(=O)O)cc(S(=O)(=O)O)cc21
Not Active	Not Active	Active	Not Active	Not Active	Not Active	0.14	Not Active	Not Active	CCN1/C(=C/C=C/C=C/C2=[N+](CCCCCC(=O)NCCCC(=O)N[C@@H](CCC(=O)NCCCC[C@H](NC(=O)N[C@@H](CCC(=O)O)C(=O)O)C(=O)O)C(=O)NCCCC[C@H](NC(=O)N[C@@H](CCC(=O)O)C(=O)O)C(=O)O)c3ccc4c(S(=O)(=O)[O-])cc(S(=O)(=O)O)cc4c3C2(C)C)C(C)(C)c2c1ccc1c(S(=O)(=O)O)cc(S(=O)(=O)O)cc21
